These results are taken from ChEMBL document CHEMBL1201862, “PubChem BioAssay data set” (2004).

Active and inactive are the calls of the source.

Assay [1] is described as follows: P. falciparum Dd2 growth inhibitors, dose response, SYBR Green, cherry-picked samples (AID 1159567). Format: functional, cell-based.
The target in a further assay is Paired box protein Pax-8 (Homo sapiens, UniProt Q06710). Description: inhibitors of PAX8-driven TPO luciferase reporter, dose response, RMG-I cells, cherry-pick (AID 687027).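 Also: luciferase reporter driven by Pax8 target thyroperoxidase promoter measured by SteadyGlo luminescence.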 Type of assay: functional, cell-based.
Chain of Paired box protein Pax-8 (Q06710 whole entry): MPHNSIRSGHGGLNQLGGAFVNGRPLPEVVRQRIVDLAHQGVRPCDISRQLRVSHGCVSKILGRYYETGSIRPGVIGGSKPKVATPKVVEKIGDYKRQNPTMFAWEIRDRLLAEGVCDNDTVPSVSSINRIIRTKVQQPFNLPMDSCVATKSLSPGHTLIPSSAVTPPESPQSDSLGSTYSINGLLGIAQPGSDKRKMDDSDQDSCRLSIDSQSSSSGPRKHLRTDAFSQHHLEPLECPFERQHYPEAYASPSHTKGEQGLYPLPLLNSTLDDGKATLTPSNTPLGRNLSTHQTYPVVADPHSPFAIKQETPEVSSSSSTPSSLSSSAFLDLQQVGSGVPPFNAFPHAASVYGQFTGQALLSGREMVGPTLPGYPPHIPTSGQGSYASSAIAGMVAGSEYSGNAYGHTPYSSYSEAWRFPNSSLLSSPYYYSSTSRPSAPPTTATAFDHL
A further assay deals with H9c2. In words: cells. Type of assay: functional, cell-based. The settings on record: Rattus norvegicus, H9c2, Myocardium.
For assay [2], the target named is T1, Fatty acid synthase (Homo sapiens, UniProt P49327). In words: FAS thioesterase domain inhibitors, dose response, biochemical, kinetic fluorescence intensity (AID 624326).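 Also: rate of fluorescence rise from hydrolysis of a fluorogenic O-methyl fluorescein ester substrate.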 Format: functional.
T1 sequence (P49327 whole entry, the tested form may be a part): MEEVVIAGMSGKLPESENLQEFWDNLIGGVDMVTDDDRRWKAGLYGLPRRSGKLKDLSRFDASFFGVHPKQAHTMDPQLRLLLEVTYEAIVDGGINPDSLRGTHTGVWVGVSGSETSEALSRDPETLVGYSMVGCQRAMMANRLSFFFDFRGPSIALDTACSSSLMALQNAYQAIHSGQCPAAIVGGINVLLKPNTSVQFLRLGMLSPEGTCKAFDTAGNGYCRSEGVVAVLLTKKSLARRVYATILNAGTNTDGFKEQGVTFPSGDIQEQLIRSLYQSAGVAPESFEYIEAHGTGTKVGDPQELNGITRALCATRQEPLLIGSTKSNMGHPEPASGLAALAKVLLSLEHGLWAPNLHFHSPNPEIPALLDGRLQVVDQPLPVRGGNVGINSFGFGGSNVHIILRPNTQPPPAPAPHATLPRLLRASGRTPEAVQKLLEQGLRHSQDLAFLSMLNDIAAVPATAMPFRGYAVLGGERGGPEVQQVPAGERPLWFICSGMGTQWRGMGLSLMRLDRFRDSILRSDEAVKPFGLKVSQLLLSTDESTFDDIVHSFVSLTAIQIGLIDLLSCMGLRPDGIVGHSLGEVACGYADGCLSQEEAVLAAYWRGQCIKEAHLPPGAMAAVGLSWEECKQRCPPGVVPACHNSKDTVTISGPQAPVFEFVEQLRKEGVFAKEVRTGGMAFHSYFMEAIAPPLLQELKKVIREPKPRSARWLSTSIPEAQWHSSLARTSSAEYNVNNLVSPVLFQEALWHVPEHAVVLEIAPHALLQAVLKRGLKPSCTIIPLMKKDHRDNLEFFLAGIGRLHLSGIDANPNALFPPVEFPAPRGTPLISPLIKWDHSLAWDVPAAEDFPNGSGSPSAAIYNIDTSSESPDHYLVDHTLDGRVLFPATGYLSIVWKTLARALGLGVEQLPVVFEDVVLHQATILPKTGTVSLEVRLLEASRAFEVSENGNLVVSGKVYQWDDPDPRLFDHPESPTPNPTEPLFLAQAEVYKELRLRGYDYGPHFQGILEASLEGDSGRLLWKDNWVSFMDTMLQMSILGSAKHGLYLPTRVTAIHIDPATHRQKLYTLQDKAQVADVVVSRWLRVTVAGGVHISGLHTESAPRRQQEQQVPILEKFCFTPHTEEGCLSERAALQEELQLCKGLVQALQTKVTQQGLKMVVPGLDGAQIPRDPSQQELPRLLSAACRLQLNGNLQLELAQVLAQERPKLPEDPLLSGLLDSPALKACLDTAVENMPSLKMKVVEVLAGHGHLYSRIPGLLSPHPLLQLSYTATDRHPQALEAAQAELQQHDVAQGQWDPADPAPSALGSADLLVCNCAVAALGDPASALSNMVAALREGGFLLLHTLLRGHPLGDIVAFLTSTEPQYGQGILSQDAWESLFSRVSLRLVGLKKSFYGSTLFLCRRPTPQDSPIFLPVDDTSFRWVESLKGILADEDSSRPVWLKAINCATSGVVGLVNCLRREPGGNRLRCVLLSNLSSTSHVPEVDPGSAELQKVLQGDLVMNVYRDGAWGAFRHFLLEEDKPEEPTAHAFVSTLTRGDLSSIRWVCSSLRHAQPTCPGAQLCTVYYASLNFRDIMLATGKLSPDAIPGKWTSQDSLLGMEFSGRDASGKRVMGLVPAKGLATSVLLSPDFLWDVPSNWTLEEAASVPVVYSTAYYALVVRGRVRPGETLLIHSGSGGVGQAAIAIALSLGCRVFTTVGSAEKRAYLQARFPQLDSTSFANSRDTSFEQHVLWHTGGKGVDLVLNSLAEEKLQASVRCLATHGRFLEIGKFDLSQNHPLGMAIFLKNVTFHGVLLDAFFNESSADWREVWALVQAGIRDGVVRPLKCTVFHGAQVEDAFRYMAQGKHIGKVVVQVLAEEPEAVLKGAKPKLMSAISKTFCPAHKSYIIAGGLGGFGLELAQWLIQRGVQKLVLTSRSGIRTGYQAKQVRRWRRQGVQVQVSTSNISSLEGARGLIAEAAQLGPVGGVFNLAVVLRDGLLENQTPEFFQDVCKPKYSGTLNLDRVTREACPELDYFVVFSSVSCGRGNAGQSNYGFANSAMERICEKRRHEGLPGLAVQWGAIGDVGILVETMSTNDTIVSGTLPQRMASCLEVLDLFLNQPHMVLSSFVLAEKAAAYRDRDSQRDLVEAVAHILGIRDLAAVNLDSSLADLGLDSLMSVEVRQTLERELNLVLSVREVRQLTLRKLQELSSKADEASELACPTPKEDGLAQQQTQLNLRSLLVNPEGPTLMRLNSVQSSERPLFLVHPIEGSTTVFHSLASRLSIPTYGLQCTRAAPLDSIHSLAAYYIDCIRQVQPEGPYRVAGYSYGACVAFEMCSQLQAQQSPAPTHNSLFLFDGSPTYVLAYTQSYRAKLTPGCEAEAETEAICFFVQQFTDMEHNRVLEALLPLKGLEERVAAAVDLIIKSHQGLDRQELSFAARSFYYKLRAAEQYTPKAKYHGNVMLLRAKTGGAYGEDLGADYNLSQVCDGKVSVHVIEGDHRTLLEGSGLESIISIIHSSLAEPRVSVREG
The target of assay [3] is T1, Fatty acid synthase. In words: FAS thioesterase domain inhibitors, dose response, biochemical, endpoint fluorescence intensity, uHTS hits (AID 624327).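 Also: fluorescence from hydrolysis of an O-methyl fluorescein acyl ester substrate by the enzyme.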 Type of assay: functional.
Assay [4] concerns the target Luciferin 4-monooxygenase (Photinus pyralis, UniProt P08659). In words: firefly luciferase enzyme inhibitors, dose response, biochemical, luminescence (AID 1891).
Assay [5] can be described thus: Luminescence Cell-Based Dose Confirmation HTS to Identify Inhibitors of Platelet Dense Granule Release. [Related pubchem assays: 1663 (Primary HTS), 1678 (Summary of Project)]. Type of assay: functional.
For another assay, the target named is T2, Leucine aminopeptidase (Plasmodium falciparum 3D7, UniProt Q8IL11).
T2 sequence (Q8IL11 whole entry): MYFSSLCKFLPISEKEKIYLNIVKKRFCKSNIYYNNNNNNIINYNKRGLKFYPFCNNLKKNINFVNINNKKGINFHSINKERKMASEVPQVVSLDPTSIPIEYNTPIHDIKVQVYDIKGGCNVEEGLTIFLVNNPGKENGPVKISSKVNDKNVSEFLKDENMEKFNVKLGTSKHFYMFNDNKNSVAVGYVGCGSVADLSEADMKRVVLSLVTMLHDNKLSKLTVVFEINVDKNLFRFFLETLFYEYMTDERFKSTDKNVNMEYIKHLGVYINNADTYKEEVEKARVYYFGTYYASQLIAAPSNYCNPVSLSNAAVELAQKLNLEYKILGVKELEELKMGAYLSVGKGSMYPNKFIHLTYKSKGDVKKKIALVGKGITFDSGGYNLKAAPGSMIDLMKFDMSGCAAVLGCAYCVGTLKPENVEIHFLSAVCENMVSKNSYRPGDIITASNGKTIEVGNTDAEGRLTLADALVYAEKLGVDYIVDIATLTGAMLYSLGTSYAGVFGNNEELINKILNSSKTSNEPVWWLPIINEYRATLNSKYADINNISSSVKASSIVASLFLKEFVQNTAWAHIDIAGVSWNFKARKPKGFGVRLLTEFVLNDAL
In words: P. falciparum M17LAP inhibitors, primary screen, biochemical, fluorogenic H-Leu-NHMec substrate, 1536-well (AID 1619). Type of assay: functional.

The nature of assay [6]: intracellular Trypanosoma cruzi inhibitors in host cells – cell-based, plate reader, cherry-pick samples, set 3, dose response (AID 651818).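 Also: compounds incubated with infected cells for about four days.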 Format: functional.
Assay [7] in a line: Luminescence Cell-Based Dose Confirmation HTS to Identify Activators of 5'UTR Stem-Loop Driven Alpha-Synuclein mRNA Translation in H4 Neuroglioblastoma Cells. [Related pubchem assays: 1829 (Project Summary), 1814 (Primary HTS)]. Type of assay: functional.
The nature of assay [8]: Luminescence Cell-Based Dose Response HTS to Identify Activators of Luciferase Translation or Activity in H4 […] Cells. [Related pubchem assays: 1829 (Project Summary), 1814 (Primary HTS)]. Format: functional.
The next assay concerns H4. Description: Luminescence Cell-Based Dose Response HTS to Identify Activators of 5'UTR Stem-Loop Driven Prion Protein mRNA Translation in H4 Neuroglioblastoma Cells. [Related pubchem assays: 1829 (Project Summary), 1814 (Primary HTS)]. Type of assay: functional. The settings on record: Homo sapiens.
A further assay has as its target T3, Estrogen receptor (Homo sapiens, UniProt P03372).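 Also: potency for inhibiting coactivator peptide recruitment to the receptor.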
T3 sequence (P03372 whole entry): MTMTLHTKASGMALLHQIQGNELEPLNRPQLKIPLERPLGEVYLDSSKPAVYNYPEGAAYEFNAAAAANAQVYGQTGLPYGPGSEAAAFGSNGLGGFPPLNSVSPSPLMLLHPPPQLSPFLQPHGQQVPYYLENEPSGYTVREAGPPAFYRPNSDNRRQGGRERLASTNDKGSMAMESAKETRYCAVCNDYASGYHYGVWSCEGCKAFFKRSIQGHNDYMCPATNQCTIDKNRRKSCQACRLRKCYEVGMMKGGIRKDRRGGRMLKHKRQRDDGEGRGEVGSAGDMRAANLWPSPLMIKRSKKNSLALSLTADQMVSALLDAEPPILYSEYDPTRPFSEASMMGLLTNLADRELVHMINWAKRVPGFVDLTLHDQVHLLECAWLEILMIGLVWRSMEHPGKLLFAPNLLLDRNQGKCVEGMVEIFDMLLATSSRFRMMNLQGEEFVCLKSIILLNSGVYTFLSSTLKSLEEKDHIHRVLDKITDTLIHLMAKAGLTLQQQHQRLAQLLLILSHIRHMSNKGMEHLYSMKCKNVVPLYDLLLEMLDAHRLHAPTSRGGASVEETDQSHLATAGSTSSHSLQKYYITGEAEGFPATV

Assay [9] can be described thus: cytotoxicity toward DRD oncogenic fibroblasts, dose response, cell-based, non-viral oncogenic, luminescence (AID 1934). Format: functional. The settings on record: Homo sapiens.
In assay [10] the test system is BJ. Description: cells. Type of assay: functional, cell-based. The settings on record: Homo sapiens.
The subject of assay [11] is BJ. Description: cytotoxicity toward BJ-TERT-LT-ST fibroblasts, dose response, cell-based, RAS-independent, luminescence (AID 1935).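 Also: BJ fibroblasts immortalized with TERT plus LT and ST oncogenes.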 Type of assay: functional. To be noted: Homo sapiens.
For assay [12], the system named is BJ. In words: cytotoxicity toward BJ-TERT fibroblasts, dose response, cell-based, RAS-independent, luminescence (AID 1933). To be noted: Homo sapiens. Type of assay: functional.
For another assay, the system named is Vero. Description: cells. Type of assay: functional. The settings on record: Chlorocebus sabaeus.
A short description of another assay: cells. Type of assay: functional.
For the next assay, the target named is Large T antigen (Simian virus 40, UniProt P03070). Type of assay: functional, Betapolyomavirus macacae.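 Also: Confirmatory-stage PubChem screen for compounds that inhibit SV40 T antigen.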
Chain of Large T antigen (P03070 whole entry): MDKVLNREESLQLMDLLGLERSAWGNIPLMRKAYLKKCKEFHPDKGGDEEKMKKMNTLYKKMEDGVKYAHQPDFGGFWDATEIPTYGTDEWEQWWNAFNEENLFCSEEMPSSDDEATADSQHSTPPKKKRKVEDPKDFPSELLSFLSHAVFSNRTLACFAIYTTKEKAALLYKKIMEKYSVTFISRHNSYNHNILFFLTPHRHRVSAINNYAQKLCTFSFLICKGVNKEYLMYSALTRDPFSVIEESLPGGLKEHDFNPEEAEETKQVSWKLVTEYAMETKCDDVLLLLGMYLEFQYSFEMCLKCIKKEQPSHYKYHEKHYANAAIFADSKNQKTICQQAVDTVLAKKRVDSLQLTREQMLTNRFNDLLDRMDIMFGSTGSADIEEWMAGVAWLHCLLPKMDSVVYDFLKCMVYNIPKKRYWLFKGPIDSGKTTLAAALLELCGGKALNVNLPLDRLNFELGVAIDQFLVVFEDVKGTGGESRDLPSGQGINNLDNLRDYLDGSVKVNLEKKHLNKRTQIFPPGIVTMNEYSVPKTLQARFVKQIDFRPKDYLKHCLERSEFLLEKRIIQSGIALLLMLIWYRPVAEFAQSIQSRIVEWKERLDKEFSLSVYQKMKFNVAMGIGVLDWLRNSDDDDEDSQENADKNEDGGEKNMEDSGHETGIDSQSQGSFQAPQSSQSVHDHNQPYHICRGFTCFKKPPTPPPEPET
The target of assay [13] is Glyceraldehyde-3-phosphate dehydrogenase (Homo sapiens, UniProt P04406).
Chain of Glyceraldehyde-3-phosphate dehydrogenase (P04406 whole entry): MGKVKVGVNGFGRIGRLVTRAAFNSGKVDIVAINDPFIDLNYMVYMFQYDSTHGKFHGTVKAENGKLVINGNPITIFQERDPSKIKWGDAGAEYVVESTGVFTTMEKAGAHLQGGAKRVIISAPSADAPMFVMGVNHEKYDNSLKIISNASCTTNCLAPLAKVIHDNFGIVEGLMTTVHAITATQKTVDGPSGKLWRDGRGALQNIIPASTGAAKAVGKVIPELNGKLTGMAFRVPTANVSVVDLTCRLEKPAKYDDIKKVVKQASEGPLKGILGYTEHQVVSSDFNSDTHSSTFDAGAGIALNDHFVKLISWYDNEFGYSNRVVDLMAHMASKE

Chain of Luciferin 4-monooxygenase (P08659 whole entry): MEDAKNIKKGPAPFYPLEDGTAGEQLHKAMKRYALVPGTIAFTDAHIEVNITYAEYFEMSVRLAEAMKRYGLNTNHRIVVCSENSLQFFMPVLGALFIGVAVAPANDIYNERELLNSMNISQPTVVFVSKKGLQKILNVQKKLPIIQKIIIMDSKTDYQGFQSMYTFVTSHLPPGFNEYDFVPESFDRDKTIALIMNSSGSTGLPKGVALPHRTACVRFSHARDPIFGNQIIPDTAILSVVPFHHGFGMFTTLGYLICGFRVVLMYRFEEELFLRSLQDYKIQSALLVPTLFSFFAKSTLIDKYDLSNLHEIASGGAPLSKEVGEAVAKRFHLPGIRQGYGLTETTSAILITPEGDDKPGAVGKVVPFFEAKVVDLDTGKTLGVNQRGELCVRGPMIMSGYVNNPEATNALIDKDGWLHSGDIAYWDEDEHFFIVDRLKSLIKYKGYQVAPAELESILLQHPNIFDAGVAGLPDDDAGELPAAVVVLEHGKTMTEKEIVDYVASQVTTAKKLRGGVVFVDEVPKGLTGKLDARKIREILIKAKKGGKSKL

For the molecule `O=C(Nc1cccc(F)c1)N[C@@H]1CC[C@@H](CCNS(=O)(=O)c2cccc(Cl)c2)O[C@@H]1CO`, the figures for the AC50 (in [1]; on Paired box protein Pax-8) were 18.6 µM (active) and 42.7 µM (active), respectively.

As to `N#CCCn1c(SCC(=O)c2c[nH]c3ccccc23)nc2ccccc21`, in the assay on H9c2, the IC50 was > 79 µM (inactive). Regarding `CCOc1ccc(N(CC(=O)N/N=C/c2ccccn2)S(=O)(=O)c2ccc(Cl)cc2)cc1`, the IC50 is 5.79 µM (active) at Fatty acid synthase [2], 10.6 µM (active) on Fatty acid synthase [3] and > 79 µM (inactive) in the assay on H9c2. With `COc1ccc(OCC(=O)Nc2ccc3c(c2)nc(CN2CCCC2)n3C)cc1`, the EC50 in assay [4] and in assay [5] was > 112 µM (not active) in each case. For the molecule `CCc1nnc(NC(=O)C(C)Sc2ccccc2)s1` (configuration not stated), the IC50 on Leucine aminopeptidase was 3.57 µM (active). Turning to `CC(=O)N1CC2(C1)[C@@H](c1ccc(-c3cccc(F)c3)cc1)[C@@H](CO)N2CC1CCCC1`, the AC50 in assay [1] was 6.15 µM (active). `C[C@H]1CN([C@@H](C)CO)C(=O)Cc2cc(NC(=O)Nc3ccc(C(F)(F)F)cc3)ccc2O[C@H]1CN(C)CC1CCCCC1`: the AC50 in assay [6] is 3.6 µM (active). On the same count and under the same terms, the same measure for `COc1ccc(NC(=O)Nc2ccc3c(c2)CC(=O)N([C@H](C)CO)C[C@@H](C)[C@@H](CN(C)Cc2ccc(C(F)(F)F)cc2)O3)cc1`: 3.52 µM (active).

Take `O=C(Nc1cccc(C(=O)O)c1)/C(=C\c1ccc2c(c1)OCO2)NC(=O)c1ccc(Br)o1`: at Leucine aminopeptidase, the IC50 is 65 µM (active). Consider `COc1cc(/C=C2/C(=N)N3C=CSC3=NC2=O)ccc1OCCCOc1ccccc1C`, for which the EC50 in assay [7] was 5.59 µM (active); in [8], 58.3 µM (active); in the assay on H4 it was 70.8 µM (active). Also, the IC50 on Estrogen receptor is listed as > 50 µM (not active). For the molecule `COc1cc(C(=O)Nc2nc(C)c(Cc3ccc4c(c3)OCO4)s2)cc(OC)c1OC`, the EC50 is 2.04 µM (active) in assay [9], 133 µM (active) in the assay with BJ [10], 1.68 µM (active) with BJ [11] and 2.49 µM (active) in the assay with BJ [12]. Regarding `O=C1c2ccccc2C(=O)N1CCCCSc1nc2ccccc2c(=O)n1CCCN1CCOCC1`, the IC50 with H9c2 was 10.1 µM (active).

On to `C[C@@H]1CCCCO[C@H](CN(C)C(=O)Nc2ccc(C(F)(F)F)cc2)[C@@H](C)CN([C@H](C)CO)C(=O)c2cc(NC(=O)Cc3ccccc3)ccc2O1`, for which the half-maximal activity concentration (AC50) in [6] is 1.78 µM (active). On to `COc1ccc2c3c([nH]c2c1)[C@H](CO)N(Cc1cc(F)ccc1F)CC31CCN(C(=O)C2CCC2)CC1`, for which the AC50 in [1] is 3.36 µM (active). With `O=C(Nc1ccccc1C(=O)Nc1ccccc1C(=O)NCc1ccco1)c1ccco1`, the IC50 in the assay on H9c2 is > 79 µM (inactive). Take `C[C@@H]1CN([C@H](C)CO)C(=O)Cc2cc(NS(=O)(=O)c3ccccc3)ccc2O[C@@H]1CN(C)S(=O)(=O)c1ccc(Cl)cc1`: the results for the AC50 (on Paired box protein Pax-8; in [6]) were 35.5 µM (active) and 2.08 µM (active), respectively. In the case of `CCOC(=O)c1cccc(NC(=O)CN2C(=O)C3C4C=CC(C4)C3C2=O)c1` (configuration not stated), at Leucine aminopeptidase, the IC50 was 14.2 µM (active). Consider `O=C(CN(CCN1CCOCC1)C(=O)Cn1nnc(-c2ccc(F)cc2)n1)NC1CCCCC1`, for which the concentration giving a half-maximal response (EC50) in assay [4] and in [5] was > 112 µM (not active) in each case. Regarding `Cc1cc(C)nc(NN=CC2=C(N3CCOCC3)/C(=C/c3ccc(Cl)cc3)CC2)n1`, the CC50 in the assay with Vero is > 25 µM (active). In the case of `O=C(CCCCCn1nnc2ccccc2c1=O)N[C@H](C(=O)O)c1ccccc1`, the EC50 in assay [4] and in assay [5] was > 112 µM (not active) throughout.

On to `COc1ccc(C(=O)COC(=O)c2ccc(Cl)nc2)c(OC)c1`, for which the IC50 in “cells” was 13.2 µM (active).

For the molecule `COc1ccc(C(=O)c2ccc(N3CCOCC3)c([N+](=O)[O-])c2)cc1`, the EC50 (in assay [9]; with BJ [10]; with BJ [11]; with BJ [12]) was > 150 µM (not active) in each case.

On to `O=C1C(C2=NC(C(=O)O)C3C(=O)N(c4ccccc4)C(=O)C23)=C(O)c2ccccc21` (configuration not stated), for which, at Leucine aminopeptidase, the IC50 was 68 µM (active). `CCOc1cc(/C=N/NC(=O)c2ccccn2)ccc1OC(=O)c1cccs1`: the IC50 in the assay “cells” is 26.5 µM (active). For the molecule `CN1CCc2c(sc3nc(SCC(=O)N4CCCCC4)n(-c4ccccc4)c(=O)c23)C1`, the EC50 is > 112 µM (not active) in assay [4] and 12.9 µM (active) in assay [5].

`Cc1cc(N2CCCCC2)ccc1C=C1C(=O)N(C)C(=S)N(C)C1=O`: the IC50 at Leucine aminopeptidase was 40.9 µM (active). Same read-out and setting: the same measure for `CCOC(=O)c1c(C)oc2ccc(NS(=O)(=O)c3ccc(C(=O)O)cc3)cc12`: 43.9 µM (active). In the case of `C[C@@H]1CN([C@@H](C)CO)C(=O)Cc2cc(NC(=O)Nc3ccc4c(c3)OCO4)ccc2O[C@@H]1CN(C)Cc1ccc(C(=O)Nc2ccccc2N)cc1`, the AC50 in assay [6] was 2.38 µM (active). On to `O=C(COC(=O)CCC(=O)c1ccc(F)cc1)Nc1cccc(S(=O)(=O)N2CCCC2)c1`, for which the EC50 is > 112 µM (not active) in assay [4] and 15.5 µM (active) in assay [5]. Turning to `CN(C)c1ccc(NC(=O)C(=O)C2C(=O)Nc3ccccc32)cc1` (configuration not stated), the IC50 at Large T antigen is 25.9 µM (active). With `COc1cc(OC)c(C2CC(=O)N3CN(c4ccc(C)cc4)CSC3=C2C#N)cc1OC` (configuration not stated), the IC50 at Large T antigen was 43.4 µM (active). As for `C[C@H](CO)N1C[C@H](C)[C@@H](CN(C)C(=O)Nc2ccc(F)cc2)Oc2ccc(NC(=O)Nc3ccc(C(F)(F)F)cc3)cc2CC1=O`, the half-maximal activity concentration (AC50) in assay [1] is 3.77 µM (active).

For the molecule `COc1cccc(N2C(=O)C(Cl)=C(N3CCN(Cc4ccc5c(c4)OCO5)CC3)C2=O)c1`, the IC50 in assay [13] is > 50 µM (inconclusive). Regarding `CC1CCCN(C(=O)COC(=O)c2n[nH]c3ccccc23)C1` (configuration not stated), the IC50 against Estrogen receptor is listed as > 50 µM (not active).
